Reference: ChEMBL document CHEMBL5584243, “Discovery of JNJ-74856665: A Novel Isoquinolinone DHODH Inhibitor for the Treatment of AML” (J Med Chem, 2024)
Converted amounts (≈) assume the structure as drawn.

Assays:
MOLM-13 [1] = test: Antitumor activity against human MOLM-13 cells xenografted in NSG mouse assessed as tumor growth inhibition at 0.062 mg/kg,po administrated daily for 10 days relative to control; assay type: functional; conditions: MOLM-13, 240 h, time 10 day, read-out: TGI
[2] = target: T1, Aryl hydrocarbon receptor (Homo sapiens, UniProt P35869); test: Activation of AhR (unknown origin) at 1 to 10 uM; conditions: dose 1-10 µM
T1 sequence (P35869 whole entry): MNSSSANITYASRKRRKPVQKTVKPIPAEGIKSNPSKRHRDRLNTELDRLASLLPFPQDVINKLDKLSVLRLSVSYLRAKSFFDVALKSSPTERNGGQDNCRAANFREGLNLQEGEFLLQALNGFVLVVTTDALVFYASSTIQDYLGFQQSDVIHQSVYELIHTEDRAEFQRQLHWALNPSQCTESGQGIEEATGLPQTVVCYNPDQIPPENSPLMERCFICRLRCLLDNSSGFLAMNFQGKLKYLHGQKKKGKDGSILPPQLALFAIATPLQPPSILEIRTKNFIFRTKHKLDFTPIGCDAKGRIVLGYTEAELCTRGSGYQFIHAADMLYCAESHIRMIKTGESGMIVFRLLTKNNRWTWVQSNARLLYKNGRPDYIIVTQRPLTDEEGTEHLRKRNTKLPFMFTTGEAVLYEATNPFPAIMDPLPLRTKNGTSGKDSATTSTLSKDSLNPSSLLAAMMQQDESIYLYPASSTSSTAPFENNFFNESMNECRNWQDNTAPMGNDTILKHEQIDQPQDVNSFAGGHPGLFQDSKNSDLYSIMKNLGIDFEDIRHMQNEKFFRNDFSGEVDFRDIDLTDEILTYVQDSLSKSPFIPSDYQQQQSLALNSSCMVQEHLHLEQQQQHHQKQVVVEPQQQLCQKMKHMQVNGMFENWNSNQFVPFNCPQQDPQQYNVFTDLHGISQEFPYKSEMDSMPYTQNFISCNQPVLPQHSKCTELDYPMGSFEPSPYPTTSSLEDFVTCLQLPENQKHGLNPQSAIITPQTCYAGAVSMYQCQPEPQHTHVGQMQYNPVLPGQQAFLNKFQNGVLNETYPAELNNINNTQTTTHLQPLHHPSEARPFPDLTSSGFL

[3] = Volume of distribution at steady state in cynomolgus monkey at 1 mg/kg,iv; assay type: ADME, organism-based, Macaca fascicularis; conditions: in vivo, read-out: Vdss
[4] = Metabolic stability in dog liver microsomes assessed as half life incubated upto 60 mins in presence of NADPH by LC-MS/MS analysis; assay type: ADME, Canis lupus familiaris, Microsome
[5] = Half life in cynomolgus monkey at 1 mg/kg,iv; assay type: ADME, organism-based, Macaca fascicularis; conditions: in vivo
[6] = Plasma protein binding in human at 1 uM incubated for 6.5 hrs by LC-MS/MS analysis; assay type: ADME, cell-free; conditions: read-out: PPB (converted)
[7] = Equilibrium solubility of compound in SGF at pH 1 using crystalline form incubated for 2 to 5 days by HPLC analysis; assay type: ADME; conditions: time 2-5 day
[8] = Lipophilicity, logD of compound; assay type: physicochemical; conditions: octanol/water
[9] = Cmax in C57BL mouse at […] measured upto 24 hrs by LC-MS/MS analysis; assay type: ADME, organism-based; conditions: in vivo
PXR (NR1I2) [10] = target: T2, PXR (NR1I2) (Homo sapiens, UniProt O75469); test: Activation of PXR (unknown origin) assessed as fold change at 1 uM relative to control; assay type: ADME; conditions: read-out: FC
T2 sequence (O75469 whole entry): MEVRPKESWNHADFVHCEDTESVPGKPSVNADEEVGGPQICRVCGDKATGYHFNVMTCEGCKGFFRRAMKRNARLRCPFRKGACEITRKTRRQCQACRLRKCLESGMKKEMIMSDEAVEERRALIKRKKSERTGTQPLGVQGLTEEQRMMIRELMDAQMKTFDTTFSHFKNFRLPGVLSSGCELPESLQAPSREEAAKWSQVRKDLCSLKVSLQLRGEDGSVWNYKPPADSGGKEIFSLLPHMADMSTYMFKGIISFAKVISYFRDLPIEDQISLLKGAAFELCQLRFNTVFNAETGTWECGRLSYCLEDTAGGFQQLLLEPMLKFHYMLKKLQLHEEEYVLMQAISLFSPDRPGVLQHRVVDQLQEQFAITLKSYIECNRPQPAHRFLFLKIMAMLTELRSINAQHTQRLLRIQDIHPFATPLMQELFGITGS

MOLM-13 [11] = test: Antiproliferative activity against human MOLM-13 cells assessed as inhibition of cell growth incubated for 72 hrs by CellTiter-Glo assay; assay type: functional, cell-based; conditions: MOLM-13, 72 h
[12] = Cmax in cynomolgus monkey at 10 mg/kg,po; assay type: ADME, organism-based, Macaca fascicularis; conditions: in vivo
CYP3A4 = CYP3A4 (Homo sapiens, UniProt P08684); test: Induction of CYP3A4 in cryopreserved human hepatocytes using midazolam as substrate assessed as fold change at 1 uM relative to control; assay type: ADME, cell-based, Hepatocyte; conditions: probe midazolam, read-out: FC
[13] = target: Kappa-type opioid receptor (Homo sapiens, UniProt P41145); test: Inhibition of KOP (unknown origin)
[14] = target: Serine/threonine-protein kinase WNK2 (Homo sapiens) (UniProt Q9Y3S1); test: Inhibition of WNK2 (unknown origin) at 1 uM relative to control
PXR (NR1I2) [15] = target: T2, PXR (NR1I2); test: Activation of PXR (unknown origin) assessed as fold change at 10 uM relative to control; assay type: ADME; conditions: read-out: FC
[16] = target: Dihydroorotate dehydrogenase (quinone), mitochondrial (Homo sapiens, UniProt Q02127); test: Binding affinity to recombinant human DHODH assessed as dissociation constant by surface plasmon resonance assay
[17] = Equilibrium solubility of compound in FaSSIF at pH 6.5 using crystalline form incubated for 2 to 5 days by HPLC analysis; assay type: ADME; conditions: time 2-5 day
[18] = Equilibrium solubility of compound in PBS at pH 7 incubated for 2 to 5 days by HPLC analysis; assay type: physicochemical; conditions: time 2-5 day

Sequence of Serine/threonine-protein kinase WNK2 (Homo sapiens) (Q9Y3S1 whole entry): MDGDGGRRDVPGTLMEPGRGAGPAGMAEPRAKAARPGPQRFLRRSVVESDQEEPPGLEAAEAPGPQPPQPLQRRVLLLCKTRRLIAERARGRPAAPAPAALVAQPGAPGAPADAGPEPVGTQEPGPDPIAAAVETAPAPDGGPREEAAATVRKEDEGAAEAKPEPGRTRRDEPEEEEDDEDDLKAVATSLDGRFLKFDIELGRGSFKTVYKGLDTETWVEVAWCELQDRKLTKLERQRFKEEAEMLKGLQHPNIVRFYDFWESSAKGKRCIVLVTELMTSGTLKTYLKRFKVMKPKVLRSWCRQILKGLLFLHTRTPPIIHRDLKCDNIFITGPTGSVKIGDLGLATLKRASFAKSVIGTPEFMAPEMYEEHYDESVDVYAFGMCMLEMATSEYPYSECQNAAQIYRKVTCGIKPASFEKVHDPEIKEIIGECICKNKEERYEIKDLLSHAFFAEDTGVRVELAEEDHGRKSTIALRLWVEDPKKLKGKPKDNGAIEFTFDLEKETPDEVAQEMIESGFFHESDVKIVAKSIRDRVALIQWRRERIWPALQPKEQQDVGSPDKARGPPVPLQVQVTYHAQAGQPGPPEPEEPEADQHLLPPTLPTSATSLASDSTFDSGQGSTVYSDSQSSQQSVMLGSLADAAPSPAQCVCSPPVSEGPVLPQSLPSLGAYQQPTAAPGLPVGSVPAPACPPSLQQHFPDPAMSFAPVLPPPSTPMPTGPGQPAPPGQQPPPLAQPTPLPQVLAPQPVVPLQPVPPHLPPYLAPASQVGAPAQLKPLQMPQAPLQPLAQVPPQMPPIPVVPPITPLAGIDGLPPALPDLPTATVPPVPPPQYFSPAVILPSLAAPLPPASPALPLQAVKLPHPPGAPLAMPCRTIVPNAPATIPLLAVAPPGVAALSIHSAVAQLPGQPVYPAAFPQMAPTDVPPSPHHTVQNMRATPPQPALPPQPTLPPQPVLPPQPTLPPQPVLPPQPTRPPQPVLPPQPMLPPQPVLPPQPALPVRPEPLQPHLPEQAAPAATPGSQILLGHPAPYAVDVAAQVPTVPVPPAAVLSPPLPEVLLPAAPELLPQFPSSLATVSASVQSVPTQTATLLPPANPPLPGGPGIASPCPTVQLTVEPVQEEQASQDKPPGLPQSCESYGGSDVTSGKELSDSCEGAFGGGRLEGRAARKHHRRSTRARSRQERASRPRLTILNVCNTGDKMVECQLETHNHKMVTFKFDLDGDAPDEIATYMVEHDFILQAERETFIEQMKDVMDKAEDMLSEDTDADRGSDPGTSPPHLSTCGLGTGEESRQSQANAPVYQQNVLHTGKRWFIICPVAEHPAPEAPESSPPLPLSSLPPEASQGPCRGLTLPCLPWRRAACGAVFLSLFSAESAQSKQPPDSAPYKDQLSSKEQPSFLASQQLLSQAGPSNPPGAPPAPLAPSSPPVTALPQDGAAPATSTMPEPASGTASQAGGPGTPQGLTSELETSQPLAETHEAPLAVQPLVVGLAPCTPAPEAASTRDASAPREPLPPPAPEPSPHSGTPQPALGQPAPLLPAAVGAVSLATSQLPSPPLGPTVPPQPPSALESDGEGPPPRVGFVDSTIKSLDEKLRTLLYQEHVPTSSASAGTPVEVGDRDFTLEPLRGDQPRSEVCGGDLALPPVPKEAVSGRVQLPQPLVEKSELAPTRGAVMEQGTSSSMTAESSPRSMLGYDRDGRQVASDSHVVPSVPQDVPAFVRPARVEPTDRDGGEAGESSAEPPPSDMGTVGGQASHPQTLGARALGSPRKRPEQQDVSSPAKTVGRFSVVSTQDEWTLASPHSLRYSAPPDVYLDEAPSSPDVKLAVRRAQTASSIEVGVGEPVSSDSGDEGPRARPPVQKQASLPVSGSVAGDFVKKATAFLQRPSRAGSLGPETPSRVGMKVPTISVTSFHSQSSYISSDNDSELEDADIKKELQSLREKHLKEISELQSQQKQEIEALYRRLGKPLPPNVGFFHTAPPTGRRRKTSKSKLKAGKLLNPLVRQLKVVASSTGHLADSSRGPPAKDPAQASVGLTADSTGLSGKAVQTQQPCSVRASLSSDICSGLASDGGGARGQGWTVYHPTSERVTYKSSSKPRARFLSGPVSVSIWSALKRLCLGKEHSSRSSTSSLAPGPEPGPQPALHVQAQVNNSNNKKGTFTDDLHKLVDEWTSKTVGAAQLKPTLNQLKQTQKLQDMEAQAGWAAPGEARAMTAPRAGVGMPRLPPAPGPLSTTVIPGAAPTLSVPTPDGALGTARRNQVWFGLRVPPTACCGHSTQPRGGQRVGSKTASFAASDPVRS
Sequence of CYP3A4 (P08684 whole entry): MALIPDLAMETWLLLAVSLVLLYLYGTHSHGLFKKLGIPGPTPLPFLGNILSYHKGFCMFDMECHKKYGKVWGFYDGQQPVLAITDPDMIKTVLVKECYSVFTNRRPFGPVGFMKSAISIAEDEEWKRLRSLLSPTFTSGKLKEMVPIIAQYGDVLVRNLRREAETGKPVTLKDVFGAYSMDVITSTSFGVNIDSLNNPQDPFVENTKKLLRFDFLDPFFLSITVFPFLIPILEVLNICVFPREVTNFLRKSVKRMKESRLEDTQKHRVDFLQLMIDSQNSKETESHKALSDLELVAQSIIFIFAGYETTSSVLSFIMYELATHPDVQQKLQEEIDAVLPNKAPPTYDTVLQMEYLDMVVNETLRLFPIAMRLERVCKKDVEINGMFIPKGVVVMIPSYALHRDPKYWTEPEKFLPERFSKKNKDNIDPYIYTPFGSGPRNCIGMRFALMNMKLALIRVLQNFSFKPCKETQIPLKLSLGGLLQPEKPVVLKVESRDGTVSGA
Sequence of Kappa-type opioid receptor (P41145 whole entry): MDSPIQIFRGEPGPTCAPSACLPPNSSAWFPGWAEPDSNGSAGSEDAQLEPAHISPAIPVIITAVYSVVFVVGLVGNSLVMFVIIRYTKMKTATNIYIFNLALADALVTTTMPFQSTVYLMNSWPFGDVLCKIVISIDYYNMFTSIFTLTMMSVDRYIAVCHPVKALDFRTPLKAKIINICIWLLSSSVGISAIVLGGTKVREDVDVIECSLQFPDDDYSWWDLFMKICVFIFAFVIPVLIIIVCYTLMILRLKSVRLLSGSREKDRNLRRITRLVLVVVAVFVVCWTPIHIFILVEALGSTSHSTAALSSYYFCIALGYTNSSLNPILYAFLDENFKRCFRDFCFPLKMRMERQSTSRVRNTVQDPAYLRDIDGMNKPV
Sequence of Dihydroorotate dehydrogenase (quinone), mitochondrial (Q02127 whole entry): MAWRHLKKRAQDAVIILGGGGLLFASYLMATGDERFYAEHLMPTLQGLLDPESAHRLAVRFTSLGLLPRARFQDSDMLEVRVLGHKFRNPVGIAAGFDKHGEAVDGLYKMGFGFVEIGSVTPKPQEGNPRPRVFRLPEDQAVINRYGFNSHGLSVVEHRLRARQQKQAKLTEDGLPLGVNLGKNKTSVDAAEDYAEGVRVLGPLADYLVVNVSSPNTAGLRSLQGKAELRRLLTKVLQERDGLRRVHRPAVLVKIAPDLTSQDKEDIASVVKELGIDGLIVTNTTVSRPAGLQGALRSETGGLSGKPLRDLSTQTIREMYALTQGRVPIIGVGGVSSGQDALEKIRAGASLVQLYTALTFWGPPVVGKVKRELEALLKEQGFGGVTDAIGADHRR

Compound: CCn1c(CO)nn(-c2cc3c(C(C)C)cn(-c4ccccc4C)c(=O)c3cc2F)c1=O
- inhibition in vivo at 0.062 mg/kg (MOLM-13 [1]): 75%
- Activity [2]: Not Active
- Vd [3]: 1.2 L/kg
- half-life [4]: 57.5 min
- half-life [5]: 384 min
- fraction unbound at 6.5 h, 1 µM [6]: 0.099
- solubility thermodynamic [7]: 25 µg/mL (≈ 57.3 µM)
- logD [8]: 2.7
- Cmax [9]: 6200 ng/mL
- fold induction at 1 µM (PXR (NR1I2) [10]): 3.2
- IC50 (MOLM-13 [11]): 0.19 nM
- Cmax [12]: 5800 ng/mL
- fold induction at 1 µM (CYP3A4): < 2
- IC50 [13]: 14 µM
- inhibition [14]: 51%
- fold induction at 10 µM (PXR (NR1I2) [15]): 7.4
- Kd [16]: 2.22 nM
- solubility thermodynamic [17]: 67 µg/mL (≈ 153 µM)
- solubility thermodynamic [18]: 371 µM (≈ 162 µg/mL)
